± gives the standard deviation of the averaged measurements.
How the values were obtained:
SUNITINIB = compound: CCN(CC)CCNC(=O)c1c(C)[nH]c(/C=C2\C(=O)Nc3ccc(F)cc32)c1C [SUNITINIB]; test: surviving fraction relative to DMSO-only wells; higher = less growth inhibition; settings: exposure time: 5 days
Outline: (§1)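 A line counted only if its three screens reached replicate Pearson r >0.7 and median Z' >0.3. Tumour cells in log phase were seeded at 250–500 per well in 384-well plates and, after 24 hours, kept in continuous contact with inhibitors at 0.5, 1, 5, 10, 50, 100, 500 and 1000 nM for five days. Surviving fraction was taken from CellTiter-Glo luminescence relative to the median of DMSO-only wells.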

VINORELBINE = compound: CCC1=C[C@@H]2CN(C1)Cc1c([nH]c3ccccc13)[C@@](C(=O)OC)(c1cc3c(cc1OC)N(C)[C@H]1[C@@](O)(C(=O)OC)[C@H](OC(C)=O)[C@]4(CC)C=CCN5CC[C@]31[C@@H]54)C2 [VINORELBINE]; test: as above; settings: exposure time: 5 days
Outline: as §1

Test System	surviving fraction (SUNITINIB; 0.5 nM)	surviving fraction (SUNITINIB; 1 nM)	surviving fraction (SUNITINIB; 5 nM)	surviving fraction (SUNITINIB; 50 nM)	surviving fraction (SUNITINIB; 100 nM)	surviving fraction (SUNITINIB; 500 nM)	surviving fraction (SUNITINIB; 1000 nM)	surviving fraction (VINORELBINE; 0.5 nM)	surviving fraction (VINORELBINE; 1 nM)	surviving fraction (VINORELBINE; 5 nM)	surviving fraction (VINORELBINE; 10 nM)	surviving fraction (VINORELBINE; 50 nM)	surviving fraction (VINORELBINE; 100 nM)	surviving fraction (VINORELBINE; 500 nM)	surviving fraction (VINORELBINE; 1000 nM)	surviving fraction (SUNITINIB; 10 nM)
U2OS BONE	0.882 ± 0.039	0.893 ± 0.032	0.95 ± 0.032	0.956 ± 0.026	0.94 ± 0.038	0.549 ± 0.014	0.262 ± 0.0072	1.09 ± 0.022	1.03 ± 0.044	0.993 ± 0.032	0.954 ± 0.04	0.569 ± 0.036	0.273 ± 0.023	0.116 ± 0.0097	0.0883 ± 0.012	
VCAP PROSTATE	0.976 ± 0.065	1 ± 0.088	1.09 ± 0.07	1.06 ± 0.077	1.09 ± 0.099	0.734 ± 0.034	0.519 ± 0.06	1.1 ± 0.096	1.02 ± 0.035	0.64 ± 0.04	0.299 ± 0.031	0.0883 ± 0.012	0.0827 ± 0.021	0.122 ± 0.0049	0.148 ± 0.022	1.02 ± 0.038
VP229 BREAST	0.708 ± 0.076	0.675 ± 0.1	0.709 ± 0.04	0.955 ± 0.12	0.964 ± 0.038	0.762 ± 0.064	0.364 ± 0.051	1.13 ± 0.18	0.962 ± 0.062	0.958 ± 0.098	0.8 ± 0.048	0.351 ± 0.043	0.297 ± 0.016	0.275 ± 0.012	0.245 ± 0.014	0.709 ± 0.065
YAMATO SYNOVIAL		0.392 ± 0.031	0.586 ± 0.058		0.583 ± 0.021	0.588 ± 0.046	0.0633 ± 0.0023	1.04 ± 0.06	1.08 ± 0.042	1 ± 0.024	0.646 ± 0.05	0.391 ± 0.036	0.36 ± 0.014	0.346 ± 0.015	0.397 ± 0.0053	0.0847 ± 0.0081
ZR751 BREAST		1.1 ± 0.16	1.15 ± 0.083	1.31 ± 0.25		1.22 ± 0.16		1.17 ± 0.19	1.07 ± 0.1	0.7 ± 0.1	0.472 ± 0.07	0.492 ± 0.054	0.431 ± 0.057	0.297 ± 0.064	0.263 ± 0.041	

Reference: the supplement of paper PMC6045584
